# Source: ChEMBL document CHEMBL1146789, “(+/-)8-Amino-5,6,7,8-tetrahydroisoquinolines as novel antinociceptive agents” (Bioorg Med Chem Lett, 2004)
# The source made the active and inactive calls. No cut-off for these calls is given here.
# Tests used:
# Mus musculus [1] = test: Antinociceptive action was determined by hotplate assay in mouse administered subcutaneously; format: functional; details: sc
# Mus musculus [2] = test: Antinociceptive action was determined by tail-flick assay in mouse administered intrathecally; format: functional; details: central
# Mus musculus [3] = test: Antinociceptive action was determined by tail-flick assay in mouse administered subcutaneously; format: functional; details: sc
# [4] = biological target: T1, Neuronal acetylcholine receptor; alpha4/beta2 (Homo sapiens, UniProt P17787+P43681); test: Affinity for nicotinic acetylcholine receptor alpha4-beta2; format: protein-complex assay
# T1 sequence (P17787 whole entry): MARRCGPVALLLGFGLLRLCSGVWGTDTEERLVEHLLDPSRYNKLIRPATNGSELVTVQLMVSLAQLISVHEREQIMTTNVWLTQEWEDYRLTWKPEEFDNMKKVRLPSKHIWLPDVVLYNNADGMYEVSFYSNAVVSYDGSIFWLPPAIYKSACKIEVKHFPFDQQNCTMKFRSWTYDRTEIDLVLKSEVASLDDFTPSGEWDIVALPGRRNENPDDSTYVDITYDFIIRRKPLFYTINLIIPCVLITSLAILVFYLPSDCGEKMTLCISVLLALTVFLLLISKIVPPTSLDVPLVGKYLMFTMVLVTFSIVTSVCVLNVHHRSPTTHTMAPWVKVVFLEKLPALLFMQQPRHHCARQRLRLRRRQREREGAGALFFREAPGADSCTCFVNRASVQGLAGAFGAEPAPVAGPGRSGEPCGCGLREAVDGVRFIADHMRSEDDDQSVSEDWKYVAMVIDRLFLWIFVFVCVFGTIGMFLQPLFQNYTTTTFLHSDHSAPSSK
# T1 sequence (P43681 whole entry): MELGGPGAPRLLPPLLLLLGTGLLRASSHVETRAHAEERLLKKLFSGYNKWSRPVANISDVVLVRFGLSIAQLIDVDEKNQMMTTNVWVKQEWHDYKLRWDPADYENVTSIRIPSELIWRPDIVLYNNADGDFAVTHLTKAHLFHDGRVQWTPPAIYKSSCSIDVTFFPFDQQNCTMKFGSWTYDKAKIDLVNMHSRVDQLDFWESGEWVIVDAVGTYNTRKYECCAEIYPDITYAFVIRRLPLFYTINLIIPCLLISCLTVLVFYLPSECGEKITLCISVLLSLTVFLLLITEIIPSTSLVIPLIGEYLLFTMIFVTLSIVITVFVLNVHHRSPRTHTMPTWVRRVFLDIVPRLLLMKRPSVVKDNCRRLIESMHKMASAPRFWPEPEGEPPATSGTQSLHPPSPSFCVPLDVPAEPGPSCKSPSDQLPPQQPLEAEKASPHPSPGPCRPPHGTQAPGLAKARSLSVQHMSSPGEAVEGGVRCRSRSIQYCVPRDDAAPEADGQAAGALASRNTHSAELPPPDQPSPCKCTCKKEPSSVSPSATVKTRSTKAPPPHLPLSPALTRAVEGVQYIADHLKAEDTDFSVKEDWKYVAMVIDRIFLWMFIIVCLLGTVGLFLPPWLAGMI
# Mus musculus [5] = test: Antinociceptive action was determined by hotplate assay in mouse administered subcutaneously at a dose of 10 mg/kg; format: functional; details: route subcutaneous
# Mus musculus [6] = test: Antinociceptive action was determined by tail-flick assay in mouse administered subcutaneously at a dose of 10 mg/kg; format: functional; details: route subcutaneous
# Mus musculus [7] = organism: Mus musculus; test: Antinociceptive action was determined; P- Possess activity; format: functional, organism-based
# [8] = biological target: T1, Neuronal acetylcholine receptor; alpha4/beta2; test: Affinity for nicotinic acetylcholine receptor alpha4-beta2; NA = Not active; format: protein-complex assay
# Mus musculus [9] = test: Antinociceptive action was determined by tail-flick assay in mouse administered intrathecally at a dose of 20-25 ug; format: functional
# [10] = biological target: 5-hydroxytryptamine receptor 1A (Homo sapiens, UniProt P08908); test: Affinity towards human 5-hydroxytryptamine 1A serotonin receptor
# Sequence of 5-hydroxytryptamine receptor 1A (P08908 whole entry): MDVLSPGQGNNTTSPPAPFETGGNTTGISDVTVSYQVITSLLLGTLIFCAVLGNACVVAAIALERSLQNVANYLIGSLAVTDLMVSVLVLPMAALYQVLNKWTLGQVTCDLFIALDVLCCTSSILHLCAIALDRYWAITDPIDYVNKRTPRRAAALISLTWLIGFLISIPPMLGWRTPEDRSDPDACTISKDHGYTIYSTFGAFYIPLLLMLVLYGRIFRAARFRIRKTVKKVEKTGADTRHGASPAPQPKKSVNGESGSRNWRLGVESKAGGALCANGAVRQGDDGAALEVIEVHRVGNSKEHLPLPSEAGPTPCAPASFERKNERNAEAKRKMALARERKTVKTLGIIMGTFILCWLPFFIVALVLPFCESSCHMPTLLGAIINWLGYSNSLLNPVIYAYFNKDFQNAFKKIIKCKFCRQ
# [11] = biological target: 5-hydroxytryptamine receptor 1B (Homo sapiens, UniProt P28222); test: Affinity towards human 5-hydroxytryptamine 1B serotonin receptor
# [12] = biological target: 5-hydroxytryptamine receptor 2B (Homo sapiens, UniProt P41595); test: Affinity towards human 5-hydroxytryptamine 2B serotonin receptor
# Sequence of 5-hydroxytryptamine receptor 2B (P41595 whole entry): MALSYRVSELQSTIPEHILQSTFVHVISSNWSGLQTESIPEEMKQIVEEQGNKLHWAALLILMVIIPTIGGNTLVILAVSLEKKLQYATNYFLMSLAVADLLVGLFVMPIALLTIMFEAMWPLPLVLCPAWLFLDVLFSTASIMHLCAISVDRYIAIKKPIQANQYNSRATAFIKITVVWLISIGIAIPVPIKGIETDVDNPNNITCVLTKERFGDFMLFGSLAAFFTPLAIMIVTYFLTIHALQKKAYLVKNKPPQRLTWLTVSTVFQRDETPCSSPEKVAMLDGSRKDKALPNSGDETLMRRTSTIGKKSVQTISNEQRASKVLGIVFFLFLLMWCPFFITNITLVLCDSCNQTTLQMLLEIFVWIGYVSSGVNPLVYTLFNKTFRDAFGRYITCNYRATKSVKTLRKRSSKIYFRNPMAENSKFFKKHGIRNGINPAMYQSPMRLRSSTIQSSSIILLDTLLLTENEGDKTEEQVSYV
# [13] = biological target: Serotonin 3 (5-HT3) receptor; test: Affinity towards human 5-hydroxytryptamine 3 serotonin receptor; format: protein-complex assay
# [14] = biological target: 5-hydroxytryptamine receptor 2C (Homo sapiens, UniProt P28335); test: Affinity towards human 5-hydroxytryptamine 2C serotonin receptor
# [15] = biological target: 5-hydroxytryptamine receptor 6 (Homo sapiens, UniProt P50406); test: Affinity towards human 5-hydroxytryptamine 6 serotonin receptor
# Sequence of 5-hydroxytryptamine receptor 6 (P50406 whole entry): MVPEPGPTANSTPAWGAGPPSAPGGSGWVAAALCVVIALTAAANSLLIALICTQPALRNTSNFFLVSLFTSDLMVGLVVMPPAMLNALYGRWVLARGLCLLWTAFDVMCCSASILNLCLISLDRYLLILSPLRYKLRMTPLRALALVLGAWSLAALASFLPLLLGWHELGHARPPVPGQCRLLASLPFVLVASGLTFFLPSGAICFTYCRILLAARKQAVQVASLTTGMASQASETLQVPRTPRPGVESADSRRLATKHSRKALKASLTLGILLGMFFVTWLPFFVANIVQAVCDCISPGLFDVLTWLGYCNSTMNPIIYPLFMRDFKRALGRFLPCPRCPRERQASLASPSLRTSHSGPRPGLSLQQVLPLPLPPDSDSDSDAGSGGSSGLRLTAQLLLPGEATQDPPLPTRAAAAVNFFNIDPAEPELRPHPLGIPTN
# [16] = biological target: 5-hydroxytryptamine receptor 5A (Homo sapiens, UniProt P47898); test: Affinity towards human 5-hydroxytryptamine 5A serotonin receptor
# [17] = biological target: 5-hydroxytryptamine receptor 7 (Homo sapiens, UniProt P34969); test: Affinity towards human 5-hydroxytryptamine 7 serotonin receptor
# Adenosine receptor A1 = Adenosine receptor A1 (Homo sapiens, UniProt P30542); test: Affinity towards human adenosine A1 receptor
# [18] = biological target: Adrenergic receptor alpha-2 (Homo sapiens, UniProt P08913+P18825+P18089); test: Affinity towards alpha-2 adrenergic receptor; format: protein assay
# Adenosine receptor A3 = Adenosine receptor A3 (Homo sapiens, UniProt P0DMS8); test: Affinity towards human adenosine A3 receptor
# Sequence of Adenosine receptor A3 (P0DMS8 whole entry): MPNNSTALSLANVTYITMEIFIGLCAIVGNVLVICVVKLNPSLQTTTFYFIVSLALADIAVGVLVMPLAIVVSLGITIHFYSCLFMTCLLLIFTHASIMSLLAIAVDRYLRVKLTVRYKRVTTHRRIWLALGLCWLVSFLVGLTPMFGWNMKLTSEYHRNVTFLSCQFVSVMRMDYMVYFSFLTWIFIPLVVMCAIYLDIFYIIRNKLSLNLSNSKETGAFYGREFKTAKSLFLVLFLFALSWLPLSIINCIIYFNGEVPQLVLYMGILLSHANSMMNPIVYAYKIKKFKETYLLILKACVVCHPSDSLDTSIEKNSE
# Adenosine A2 receptor = Adenosine A2 receptor (Homo sapiens, UniProt P29275+P29274); test: Affinity towards human adenosine A2 receptor; format: protein assay
# [19] = biological target: Adrenergic receptor alpha-1 (Homo sapiens, UniProt P35348+P25100+P35368); test: Affinity towards alpha-1 adrenergic receptor; format: protein assay
# [20] = biological target: Beta-2 adrenergic receptor (Homo sapiens, UniProt P07550); test: Affinity towards human beta-2 adrenergic receptor
# [21] = biological target: GABA-A receptor; anion channel; test: Binding affinity for GABA-A central benzodiazepine receptor; format: protein-complex assay
# Translocator protein = Translocator protein (Homo sapiens, UniProt P30536); test: Binding affinity for peripheral benzodiazepine receptor
# [22] = Binding towards calcium channel(Ca++); NA- Not active
# [23] = Binding towards chloride channel(Cl-); NA = Not active
# D(2) dopamine receptor = D(2) dopamine receptor (Homo sapiens, UniProt P14416); test: Affinity towards human dopamine receptor D2
# [24] = biological target: Sodium-dependent dopamine transporter (Homo sapiens) (UniProt Q01959); test: Binding towards dopamine transporter; NA- Not active
# Sequence of Sodium-dependent dopamine transporter (Homo sapiens) (Q01959 whole entry): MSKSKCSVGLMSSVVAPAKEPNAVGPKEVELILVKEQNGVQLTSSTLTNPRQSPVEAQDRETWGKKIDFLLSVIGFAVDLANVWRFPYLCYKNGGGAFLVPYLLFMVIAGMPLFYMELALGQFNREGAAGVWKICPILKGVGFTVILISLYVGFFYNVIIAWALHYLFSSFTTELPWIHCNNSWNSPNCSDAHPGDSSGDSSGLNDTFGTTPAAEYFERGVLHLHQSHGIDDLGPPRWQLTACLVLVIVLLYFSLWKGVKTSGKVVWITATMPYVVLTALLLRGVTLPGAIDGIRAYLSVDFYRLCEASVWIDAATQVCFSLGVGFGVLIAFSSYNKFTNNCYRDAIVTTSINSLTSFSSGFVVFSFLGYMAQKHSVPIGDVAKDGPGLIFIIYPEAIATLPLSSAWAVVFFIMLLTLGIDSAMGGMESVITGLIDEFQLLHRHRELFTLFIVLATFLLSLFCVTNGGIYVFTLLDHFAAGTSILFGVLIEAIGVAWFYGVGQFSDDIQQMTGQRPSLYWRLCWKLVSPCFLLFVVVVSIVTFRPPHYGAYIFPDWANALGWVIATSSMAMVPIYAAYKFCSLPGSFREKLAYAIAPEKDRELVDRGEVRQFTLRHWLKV
# D(1A) dopamine receptor = D(1A) dopamine receptor (Homo sapiens, UniProt P21728); test: Affinity towards human Dopamine receptor D1
# D(4) dopamine receptor = D(4) dopamine receptor (Homo sapiens, UniProt P21917); test: Affinity towards human dopamine receptor D4
# D(3) dopamine receptor = D(3) dopamine receptor (Homo sapiens, UniProt P35462); test: Affinity towards human dopamine receptor D3
# Histamine H1 receptor = Histamine H1 receptor (Homo sapiens, UniProt P35367); test: Affinity towards histamine H1 receptor
# Histamine H2 receptor = Histamine H2 receptor (Homo sapiens, UniProt P25021); test: Affinity towards histamine H2 receptor
# [25] = biological target: Sodium-dependent noradrenaline transporter (Homo sapiens) (UniProt P23975); test: Binding towards norepinephrine transporter; NA= Not active
# [26] = biological target: Muscarinic acetylcholine receptor M5 (Homo sapiens, UniProt P08912); test: Affinity towards human Muscarinic acetylcholine receptor M5
# [27] = biological target: Muscarinic acetylcholine receptor M3 (Homo sapiens, UniProt P20309); test: Affinity towards human muscarinic acetylcholine receptor M3
# [28] = biological target: Muscarinic acetylcholine receptor M2 (Homo sapiens, UniProt P08172); test: Affinity towards human muscarinic acetylcholine receptor M2
# [29] = biological target: Muscarinic acetylcholine receptor M4 (Homo sapiens, UniProt P08173); test: Affinity towards human Muscarinic acetylcholine receptor M4
# [30] = biological target: Kappa-type opioid receptor (Homo sapiens, UniProt P41145); test: Affinity towards kappa opioid receptor
# Sequence of Kappa-type opioid receptor (P41145 whole entry): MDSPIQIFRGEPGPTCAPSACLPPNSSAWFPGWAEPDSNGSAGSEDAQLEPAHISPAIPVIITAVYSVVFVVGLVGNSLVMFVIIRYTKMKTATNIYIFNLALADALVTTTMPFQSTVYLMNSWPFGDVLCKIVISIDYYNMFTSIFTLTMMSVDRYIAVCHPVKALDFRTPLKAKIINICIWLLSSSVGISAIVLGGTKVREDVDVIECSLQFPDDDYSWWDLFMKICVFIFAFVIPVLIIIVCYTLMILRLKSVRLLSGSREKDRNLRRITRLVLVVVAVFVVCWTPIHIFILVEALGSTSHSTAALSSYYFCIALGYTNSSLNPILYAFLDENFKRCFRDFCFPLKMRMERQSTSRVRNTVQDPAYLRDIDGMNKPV
# [31] = biological target: Delta-type opioid receptor (Homo sapiens, UniProt P41143); test: Affinity towards opioid receptor delta 1
# Mu-type opioid receptor = Mu-type opioid receptor (Homo sapiens, UniProt P35372); test: Affinity towards opioid receptor mu 1
# [32] = biological target: A-type voltage-gated potassium channel KCND3 (Homo sapiens, UniProt Q9UK17); test: Binding towards potassium channel(K+); NA = Not active
# Sequence of A-type voltage-gated potassium channel KCND3 (Q9UK17 whole entry): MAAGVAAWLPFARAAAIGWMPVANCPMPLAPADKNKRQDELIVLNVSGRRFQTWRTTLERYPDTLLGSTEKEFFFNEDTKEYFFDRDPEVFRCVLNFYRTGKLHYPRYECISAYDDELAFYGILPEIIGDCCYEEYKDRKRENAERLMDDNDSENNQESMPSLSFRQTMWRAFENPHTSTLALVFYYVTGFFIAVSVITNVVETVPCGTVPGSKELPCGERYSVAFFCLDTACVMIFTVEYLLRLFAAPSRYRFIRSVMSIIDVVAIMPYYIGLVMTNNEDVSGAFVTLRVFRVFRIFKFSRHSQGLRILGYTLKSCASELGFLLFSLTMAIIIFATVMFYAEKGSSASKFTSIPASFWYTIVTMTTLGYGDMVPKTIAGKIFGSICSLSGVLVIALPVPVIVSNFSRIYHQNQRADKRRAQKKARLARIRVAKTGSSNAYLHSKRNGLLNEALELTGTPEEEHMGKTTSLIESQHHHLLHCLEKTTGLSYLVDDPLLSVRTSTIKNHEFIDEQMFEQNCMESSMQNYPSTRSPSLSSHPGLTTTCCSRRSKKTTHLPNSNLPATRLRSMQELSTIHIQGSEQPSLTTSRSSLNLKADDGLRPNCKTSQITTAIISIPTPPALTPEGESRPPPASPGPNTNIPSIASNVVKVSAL
# [33] = Binding towards sodium channel(Na+); NA = Not active
# [34] = biological target: Muscarinic acetylcholine receptor M1 (Homo sapiens, UniProt P11229); test: Affinity towards human muscarinic acetylcholine receptor M1
# Sequence of Muscarinic acetylcholine receptor M1 (P11229 whole entry): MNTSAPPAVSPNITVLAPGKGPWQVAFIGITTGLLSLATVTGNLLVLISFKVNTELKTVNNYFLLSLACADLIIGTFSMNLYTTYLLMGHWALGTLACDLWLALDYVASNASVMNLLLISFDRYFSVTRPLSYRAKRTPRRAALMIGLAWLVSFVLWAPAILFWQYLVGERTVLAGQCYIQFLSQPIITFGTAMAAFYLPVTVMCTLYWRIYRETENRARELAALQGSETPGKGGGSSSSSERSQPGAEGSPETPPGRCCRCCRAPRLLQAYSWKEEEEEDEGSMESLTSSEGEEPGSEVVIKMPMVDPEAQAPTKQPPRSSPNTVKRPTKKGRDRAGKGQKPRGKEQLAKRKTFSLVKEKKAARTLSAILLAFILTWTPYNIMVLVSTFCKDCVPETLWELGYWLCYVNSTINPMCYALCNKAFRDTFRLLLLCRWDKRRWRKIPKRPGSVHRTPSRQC
# D(1B) dopamine receptor = D(1B) dopamine receptor (Homo sapiens, UniProt P21918); test: Affinity towards human dopamine receptor D5
smiles,measurement,setting,value
CN1CCC[C@H]1c1cccnc1 [NICOTINE],ED50,Mus musculus [1],0.5 mg/kg
same,ED50,Mus musculus [2],12 µg/mouse
same,ED50,Mus musculus [3],1.5 mg/kg
CCCNC1CCCc2ccncc21 (stereo not given),Ki,[4],> 10 µM
NC1CCCc2ccncc21 (stereo not given),MPE,Mus musculus [5],10%
same,MPE,Mus musculus [6],1%
same,Ki,[4],> 10 µM
CN1CCC2CCc3ccncc3C21 (stereo not given),Activity,Mus musculus [7],Active
same,Ki,[8],Not Active
COc1cc2c(cn1)C1NCCC1CC2 (stereo not given),Activity,Mus musculus [7],Active
same,Ki,[8],Not Active
c1cc2c(cn1)C(N1CCCC1)CCC2 (stereo not given),MPE,Mus musculus [5],11%
same,MPE,Mus musculus [9],6%
same,MPE,Mus musculus [6],2%
same,Ki,[4],> 10 µM
CNC1CCCc2ccncc21 (stereo not given),MPE,Mus musculus [5],2%
same,MPE,Mus musculus [6],0%
same,ED50,Mus musculus [2],13 µg/mouse
same,Ki,[4],> 10 µM
CCCN(C)C1CCCc2ccncc21 (stereo not given),Ki,[4],> 10 µM
CN(C)C1CCCc2ccncc21 (stereo not given),MPE,Mus musculus [9],8%
same,MPE,Mus musculus [6],2%
same,ED50,Mus musculus [1],3.9 mg/kg
same,Ki,[4],0.33 µM
CCN(C)C1CCCc2ccncc21.O=C(O)/C=C\C(=O)O.O=C(O)/C=C\C(=O)O (stereo not given),Ki,[10],> 10 µM
same,Ki,[11],> 10 µM
same,Ki,[12],> 10 µM
same,Ki,[13],> 10 µM
same,Ki,[14],> 10 µM
same,Ki,[15],> 10 µM
same,Ki,[16],> 10 µM
same,Ki,[17],> 10 µM
same,Ki,Adenosine receptor A1,> 10 µM
same,Ki,[18],> 10 µM
same,Ki,Adenosine receptor A3,> 10 µM
same,Ki,Adenosine A2 receptor,> 10 µM
same,Ki,[19],> 10 µM
same,Ki,[20],> 10 µM
same,Ki,[21],> 10 µM
same,Ki,Translocator protein,> 10 µM
same,Activity,[22],inactive
same,Activity,[23],inactive
same,Ki,D(2) dopamine receptor,> 10 µM
same,Activity,[24],inactive
same,Ki,D(1A) dopamine receptor,> 10 µM
same,Ki,D(4) dopamine receptor,> 10 µM
same,Ki,D(3) dopamine receptor,> 10 µM
same,Ki,Histamine H1 receptor,> 10 µM
same,Ki,Histamine H2 receptor,> 10 µM
same,ED50,Mus musculus [1],0.2 mg/kg
same,ED50,Mus musculus [2],12 µg/mouse
same,ED50,Mus musculus [3],0.6 mg/kg
same,Activity,[25],inactive
same,Ki,[26],> 10 µM
same,Ki,[27],> 10 µM
same,Ki,[28],> 10 µM
same,Ki,[29],> 10 µM
same,Ki,[30],> 10 µM
same,Ki,[31],> 10 µM
same,Ki,Mu-type opioid receptor,> 10 µM
same,Activity,[32],Not Active
same,Activity,[33],inactive
same,Ki,[34],> 10 µM
same,Ki,D(1B) dopamine receptor,> 10 µM
same,Ki,[4],0.93 µM
